The values that follow come from patent publication US8809369B2, “Tetrahydroquinoline derivatives” (Hoffmann-La Roche Inc., priority 2011, dated 2014).

The first assay deals with ACC (acetyl-CoA carboxylase). Nature of the assay: p-ACC expression level in L6 cell line by Western blot. It is filed as cell-based. The settings on record: Rattus norvegicus, L6 cells, 2 hours compound treatment, read-out: Activity AC1.3 (ACCp). The method, then: (§1) Evaluation of p-AMPK and p-ACC expression level in L6 cell line by Western-Blot
(§2) This method evaluates the changes of AMP-activated protein kinase (AMPK) and ACC (acetyl-CoA carboxylase) activity by small molecular modulators through detecting the level of p-AMPK and p-ACC proteins in L6 cells using Western blot.
(§3) L6 cells are maintained in DMEM medium supplemented with 10% FBS in 10-cm dishes. Prior to compounds treatment, L6 cells are seeded in 12-well-plates at concentration of 3×10^4 cells per well. After 24 hours of incubation in 12-well plates, L6 cells are differentiated by replacing the 10% FBS-DMEM medium with 2% FBS-DMEM. Differentiation usually takes 5 days, during which the culture medium is changed every 2 days.
(§4) The compound concentrations typically range from 32 μM to 0.5 μM with 2-fold dilution in 2 ml DMEM and 7 doses. The final DMSO concentration is 0.4%. Berberine is used as a positive control at concentration of 16 μM. Before compound treatment, starve L6 cells for 2 hours by replacing the medium with DMEM, and then gently aspirate the media from each well. Add the compounds into the plates and incubate at 37 degree 5% CO2 for 2 hours.
(§5) Prepare lysis buffer (RIPA buffer with protease-inhibitors and phosphorate-inhibitors) and place it on ice. After two hour's compound treatment, aspirate the medium from 12-well plates, add 70 ul lysis buffer to each well and keep the plates on ice for 5 min. Then scrape the cell lysate off the plates and transfer it to 1.5 ml eppendorf tubes. Keep the tube on ice for more 10 min, centrifugate the lysate at 13000 rpm, 4 degrees for 15 min and transfer the supernatant to clean tubes.
(§6) Determine protein concentration for each sample using Quickstart Bradford protein quantitation kit. Mix 20 ug protein sample with 4 times loading buffer, heat them at 100° C. for 5 min, store the sample in −80° C. or perform Western blot assay directly. For Western blot assay, load 20 ug samples and 10 ul Pre-stained Protein Maker into 4-12% SDS-PAGE gradient gel. Run the samples at 100 V in the stacking gel and at 120 V in resolving gel until the Bromophenol dye reaches the bottom. Transfer the electrophoresed proteins to a PVDF membrane using Bio-Rad's Transblot for 120 min at 300 mA. Following the completion of transfer, the membrane is blocked with 5% non-fat milk for 2 hours at room temperature before incubated with primary antibody (p-AMPK and p-ACC) at 4° C. overnight. On the next day wash the membrane twice with TBST, add secondary antibody and incubate for 1 hour at room temperature. Wash the membrane twice with TBST. Develop p-AMPK and p-ACC protein expression level on the film in dark room with Amersham ECL plus kit. The bands of each sample are quantitated by Bio-Rad system, The AC1.3 value is analyzed using Prism 5.0.
For orientation: In western blotting, separated proteins are transferred to a membrane and probed.
For the compound `CC1(C)CC(c2cccc(N3CCOCC3)c2)Nc2ccc(C(=O)NS(=O)(=O)C3CC3)cc21` (stereo not shown) [Example 1, Cyclopropanesulfonic acid [4,4-dimethyl-2-(3-morpholin-4-yl-phenyl)-1,2,3,4-tetrahydro-quinoline-6-carbonyl]-amide], the EC (1.3-fold) was 1.4 µM.
Still for that read-out and setting: the result for `CC1(C)CC(c2cc(F)cc(N3CCOCC3)c2)Nc2ccc(C(=O)NS(=O)(=O)C3CC3)cc21` (stereo not shown) [Example 6, Cyclopropanesulfonic acid [2-(3-fluoro-5-morpholin-4-yl-phenyl)-4,4-dimethyl-1,2,3,4-tetrahydro-quinoline-6-carbonyl]-amide] reads 3.5 µM.
On the same count and under the same terms, the result for `CC1(c2ccccc2)CC(c2ccc(F)c(Cl)c2)Nc2ccc(C(=O)NS(C)(=O)=O)cc21` (stereo not shown) [Example 7, N-[2-(3-chloro-4-fluoro-phenyl)-4-methyl-4-phenyl-1,2,3,4-tetrahydro-quinoline-6-carbonyl]-methanesulfonamide] reads under 16 µM; that for `CCCS(=O)(=O)NC(=O)c1ccc2c(c1)C(C)(C)CC(c1ccc(F)c(Cl)c1)N2` (stereo not shown) [Example 8, Propane-1-sulfonic acid [2-(3-chloro-4-fluoro-phenyl)-4,4-dimethyl-1,2,3,4-tetrahydro-quinoline-6-carbonyl]-amide], under 32 µM.
The same measure, in the same setting: next, `CC(C)S(=O)(=O)NC(=O)c1ccc2c(c1)C(C)(C)CC(c1cccc(N3CCOCC3)c1)N2` (stereo not shown) [Example 9, Propane-2-sulfonic acid [4,4-dimethyl-2-(3-morpholin-4-yl-phenyl)-1,2,3,4-tetrahydro-quinoline-6-carbonyl]-amide]: 4.5 µM; `CC1(C)CC(c2cccc(N3CCOCC3)c2)Nc2c(C(=O)NS(C)(=O)=O)cccc21` (stereo not shown) [Example 10, N-[4,4-dimethyl-2-(3-morpholin-4-yl-phenyl)-1,2,3,4-tetrahydro-quinoline-8-carbonyl]-methanesulfonamide]: under 0.2 µM.
Take `CC1(C)CC(c2cccc(N3CCOCC3)c2)Nc2c(C(=O)NS(=O)(=O)C3CC3)cccc21` (stereo not shown) [Example 11, Cyclopropanesulfonic acid [4,4-dimethyl-2-(3-morpholin-4-yl-phenyl)-1,2,3,4-tetrahydro-quinoline-8-carbonyl]-amide]: the EC (1.3-fold) amounted to 0.3 µM.
Same read-out and setting: the result for `CC(C)NS(=O)(=O)c1ccc2c(c1)C(C)(C)CC(c1cccc(N3CCOCC3)c1)N2` (stereo not shown) [Example 13, 4,4-Dimethyl-2-(3-morpholin-4-yl-phenyl)-1,2,3,4-tetrahydro-quinoline-6-sulfonic acid isopropylamide] reads 0.4 µM.
Same read-out and setting: the result for `CC1(C)CC(c2cccc(N3CCNCC3)c2)Nc2ccc(S(=O)(=O)N3CCOCC3)cc21` (stereo not shown) [Example 14, 4,4-Dimethyl-6-(morpholine-4-sulfonyl)-2-(3-piperazin-1-yl-phenyl)-1,2,3,4-tetrahydro-quinoline] reads 4.7 µM; that for `CC1(C)CC(c2cccc(C(F)(F)F)c2)Nc2ccc(C(=O)NS(C)(=O)=O)cc21` (stereo not shown) [Example 30, N-[4,4-dimethyl-2-(3-trifluoromethyl-phenyl)-1,2,3,4-tetrahydro-quinoline-6-carbonyl]-methanesulfonamide], 0.002 µM; that for `CC1(C)CC(c2cccc(C(F)(F)F)c2)Nc2ccc(C(=O)NS(=O)(=O)C3CC3)cc21` (stereo not shown) [Example 31, Cyclopropanesulfonic acid [4,4-dimethyl-2-(3-trifluoromethyl-phenyl)-1,2,3,4-tetrahydro-quinoline-6-carbonyl]-amide], 2 µM.
On the same count and under the same terms, the result for `CC(C)(C)c1ccc(-c2cccc(C3CC(C)(C)c4cc(C(=O)NS(C)(=O)=O)ccc4N3)c2)cc1` (stereo not shown) [Example 39, N-[2-(4′-tert-butyl-biphenyl-3-yl)-4,4-dimethyl-1,2,3,4-tetrahydro-quinoline-6-carbonyl]-methanesulfonamide] reads 1.4 µM.
On to `CC1(C)CC(c2cccc(-c3nnnn3C3CC3)c2)Nc2ccc(C(=O)NS(=O)(=O)C3CC3)cc21` (stereo not shown) [Example 41, Cyclopropanesulfonic acid {2-[3-(1-cyclopropyl-1H-tetrazol-5-yl)-phenyl]-4,4-dimethyl-1,2,3,4-tetrahydro-quinoline-6-carbonyl}-amide], for which the EC (1.3-fold) was determined as 1.16 µM.
Turning to `CC(C)Oc1ccc(-c2cccc(C3CC(C)(C)c4cc(C(=O)NS(C)(=O)=O)ccc4N3)c2)cc1` (stereo not shown) [Example 45, N-[2-(4′-isopropoxy-biphenyl-3-yl)-4,4-dimethyl-1,2,3,4-tetrahydro-quinoline-6-carbonyl]-methanesulfonamide], the EC (1.3-fold) is under 8 µM.
Same read-out and setting: the result for `CC(C)Oc1ccc(-c2cccc(C3CC(C)(C)c4cc(C(=O)NS(=O)(=O)C5CC5)ccc4N3)c2)cc1` (stereo not shown) [Example 46, Cyclopropanesulfonic acid [2-(4′-isopropoxy-biphenyl-3-yl)-4,4-dimethyl-1,2,3,4-tetrahydro-quinoline-6-carbonyl]-amide] reads under 8 µM; that for `CCc1ccc(N2CCOCC2)cc1C1CC(C)(C)c2cc(C(=O)NS(=O)(=O)C3CC3)ccc2N1` (stereo not shown) [Example 47, Cyclopropanesulfonic acid [2-(2-ethyl-5-morpholin-4-yl-phenyl)-4,4-dimethyl-1,2,3,4-tetrahydro-quinoline-6-carbonyl]-amide], 62.4 µM; that for `CC1(C)CC(c2cccc(N3CCOCC3)c2)Nc2cc(C(=O)NS(C)(=O)=O)ccc21` (stereo not shown) [Example 55, N-[4,4-dimethyl-2-(3-morpholin-4-yl-phenyl)-1,2,3,4-tetrahydro-quinoline-7-carbonyl]-methanesulfonamide], 0.7 µM.
On the same count and under the same terms, the result for `CC1(C)CC(c2cccc(N3CCN(c4ccccc4F)CC3)c2)Nc2c(C(=O)NS(=O)(=O)C3CC3)cc(F)cc21` (stereo not shown) [Example 60, Cyclopropanesulfonic acid (6-fluoro-2-{3-[4-(2-fluoro-phenyl)-piperazin-1-yl]-phenyl}-4,4-dimethyl-1,2,3,4-tetrahydro-quinoline-8-carbonyl)-amide] reads 7.33 µM; that for `CC1(C)CC(c2cccc(N3CCOCC3)c2)Nc2c(C(=O)NS(C)(=O)=O)cc(Cl)cc21` (stereo not shown) [Example 62, N-[6-chloro-4,4-dimethyl-2-(3-morpholin-4-yl-phenyl)-1,2,3,4-tetrahydro-quinoline-8-carbonyl]-methanesulfonamide], 68 µM.
The same measure, in the same setting: next, `CC1(C)CC(c2cccc(N3CCOCC3)c2)Nc2c(C(=O)NS(=O)(=O)C3CC3)cc(Cl)cc21` (stereo not shown) [Example 63, Cyclopropanesulfonic acid [6-chloro-4,4-dimethyl-2-(3-morpholin-4-yl-phenyl)-1,2,3,4-tetrahydro-quinoline-8-carbonyl]-amide]: 5.2 µM; `CC1(C)CC(c2cccc(N3CCOC3=O)c2)Nc2c(C(=O)NS(=O)(=O)C3CC3)cc(Cl)cc21` (stereo not shown) [Example 65, Cyclopropanesulfonic acid {6-chloro-4,4-dimethyl-2-[3-(2-oxo-oxazolidin-3-yl)-phenyl]-1,2,3,4-tetrahydro-quinoline-8-carbonyl}-amide]: 12.8 µM; `CC1(C)CC(c2cccc(N3CCCC3)c2)Nc2c(C(=O)NS(C)(=O)=O)cc(F)cc21` (stereo not shown) [Example 69, N-[6-fluoro-4,4-dimethyl-2-(3-pyrrolidin-1-yl-phenyl)-1,2,3,4-tetrahydro-quinoline-8-carbonyl]-methanesulfonamide]: 0.1 µM.

The test system of another assay is AMP-activated protein kinase (AMPK). As to the kind of experiment: p-AMPK expression level in L6 cell line by Western blot. It is filed as cell-based. The settings on record: L6 cells, 2 hours compound treatment. The method, then: as §1, §2, §3, §4, §5, §6
For `CC(C)(Nc1cccc(C2CC(C)(C)c3cc(S(=O)(=O)NC4CCC4)ccc3N2)c1)C(=O)O` (stereo not shown) [Example 85, 2-[3-(6-Cyclobutylsulfamoyl-4,4-dimethyl-1,2,3,4-tetrahydro-quinolin-2-yl)-phenylamino]-2-methyl-propionic acid], the “Activity AC1.3 (AMPKp)” value stood at 0.03 µM.
Same read-out and setting: next, `CC(C)(Nc1cc(F)cc(C2CC(C)(C)c3cc(S(=O)(=O)NC4CCC4)ccc3N2)c1)C(=O)O` (stereo not shown) [Example 86, 2-[3-(6-Cyclobutylsulfamoyl-4,4-dimethyl-1,2,3,4-tetrahydro-quinolin-2-yl)-5-fluoro-phenylamino]-2-methyl-propionic acid]: 0.003 µM; `CC1(C)CC(c2cc(F)cc(NC3(C(=O)O)CC3)c2)Nc2ccc(S(=O)(=O)NC3CCC3)cc21` (stereo not shown) [Example 87, 1-[3-(6-Cyclobutylsulfamoyl-4,4-dimethyl-1,2,3,4-tetrahydro-quinolin-2-yl)-5-fluoro-phenylamino]-cyclopropanecarboxylic acid]: 0.002 µM.
